Measured values from paper PMC9725750, “The clinical pharmacology of tafenoquine in the radical cure of Plasmodium vivax malaria: An individual patient data meta-analysis” (eLife, 2022).

How the values were obtained:
blood MetHb = assay: Blood methaemoglobin (MetHb) concentration on day 7 by pulse CO-oximeter; assay type: in vivo, human
Source text: All patients in the phase 1 trial and the three efficacy trials had frequent blood MetHb measurements taken using non-invasive signal extraction pulse CO-oximeter handheld machines. For the three efficacy trials, we excluded measurements taken at or after recurrence of vivax malaria. Because erroneous readings from the handheld oximeters can occur, we inspected visually the longitudinal MetHb curves for each patient. […] All patients from this site were excluded from the MetHb analysis ( n =91), resulting in a total of 9632 MetHb measurements across 746 P. vivax infected patients and 72 healthy volunteers.

[1] = no reference given; cited from earlier work
Plasmodium vivax = assay: Radical cure efficacy: any P. vivax recurrence within 4 months in patients, pooled DETECTIVE part 1/2 and GATHER (logistic regression and Emax models); assay type: in vivo, human
Source text: The primary endpoint for the main efficacy analyses was any P. vivax recurrence within 4 months. We chose the binary endpoint of any recurrence rather than the time to first recurrence because tafenoquine has both asexual stage antimalarial activity ([Fukuda et al., 2017]) and hypnozoiticidal activity. […] The choice of a particular cut-off for follow-up is thus a trade-off between sensitivity and specificity. Longer follow-up will increase the sensitivity of the endpoint (include more relapses) but decrease specificity (include more reinfections).
For all predictors we fitted Bayesian mixed effects logistic regression models (random intercepts for study and study site), with adjustment for day 0 parasitaemia (log transformed). Logistic regression allows inference of the odds-ratio for recurrence for the predictive variable of interest, assuming a linear relationship between the predictive variable and log-odds for recurrence.
For the mg/kg dose (the primary predictor of interest), the dose-response relationship was then assessed under a Bayesian Emax model, where the dose-dependent logit probability of recurrence is defined as: Emax(d,x)=α+βx+δd^k/d^k+γ^k,
The Emax model was also fitted with random intercepts for study and study site.
To determine the main predictors of recurrence, we fitted a multivariable penalised Bayesian logistic regression model. This included the following variables as predictors: the tafenoquine mg/kg dose; the plasma tafenoquine AUC[0,∞); the plasma tafenoquine Cmax; the day 7 MetHb concentration (%); the terminal elimination half-life t1/2; and the baseline parasite density. The model included random intercept terms for each study and study site. […] To avoid convergence issues resulting from the co-linearity of the predictors, the prior on all non-hierarchical coefficients was set to a Normal(0,0.5). This prior effectively shrinks the regression coefficients towards zero. It can be interpreted as follows: plausible odds-ratios for recurrence for one standard deviation change for each of the fixed effect predictors lie approximately between 0.38 and 2.7).
In a priori sensitivity analyses, all recurrences up until 6 months were included as both binary and time to event outcomes. The time to first recurrence was defined as a P. vivax episode between day 7 and day 180 with right censoring at the last recorded visit. We also re-ran the same models in patients who received a 300 mg single dose of tafenoquine only (i.e. the current recommended treatment).

SMILES: CCCCN(CCCC)CC(O)c1cc(Cl)cc2c1-c1ccc(Cl)cc1/C2=C/c1ccc(Cl)cc1 (stereo not drawn) [lumefantrine]
- reduction in day 7 methaemoglobin per ten-fold increase in day 7 plasma lumefantrine concentration (blood MetHb; healthy volunteers randomised to tafenoquine + AL, 95% CI 3 to 62%): 40%

SMILES: Clc1ccc2c(N3CCN(CCCN4CCN(c5ccnc6cc(Cl)ccc56)CC4)CC3)ccnc2c1 [piperaquine]
- association of day 7 piperaquine concentration with day 7 MetHb (reduction) (blood MetHb; healthy volunteers, tafenoquine + DHA-PQP, no clear association, 95% CI –27 to 72%): 40%

SMILES: COc1cc(NC(C)CCCN)c2ncccc2c1 (stereo not drawn) [primaquine]
- terminal elimination half-life [1]: 5 h
- posterior probability that the recurrence was more likely following primaquine (Plasmodium vivax; 3.5 mg/kg primaquine vs 5 mg/kg tafenoquine): 0.73
- Recurrence at 4 months (Plasmodium vivax; PQ low-dose 15 mg base daily for 14 days + chloroquine, n=257): 57 (22.2) total number (%)
- mean probability of recurrence at 4 months (Plasmodium vivax; logistic model estimate, following 3.5 mg/kg primaquine, 95% CI 0.10–0.26): 0.17
